Data: patent US20250326733A1, “A NEW ROUTE FOR SY[…] CHIRAL CANNABINOIDS FROM COUMARINS” (University of Florida Research Foundation, Inc., priority 2021, published 2025)
Entries after “also recorded” stand apart in the source; their conditions may differ.

Experiments:
[1] = molecular target: T1, hCB1R (Homo sapiens, UniProt P21554); test: Binding affinity at human cannabinoid receptor 1
[2] = molecular target: T2, hCB2R (Homo sapiens, UniProt P34972); test: Binding affinity at human cannabinoid receptor 2; details: for CB1/CB2: ratio of Ki hCB1R / hCB2R
T2 sequence (P34972 whole entry): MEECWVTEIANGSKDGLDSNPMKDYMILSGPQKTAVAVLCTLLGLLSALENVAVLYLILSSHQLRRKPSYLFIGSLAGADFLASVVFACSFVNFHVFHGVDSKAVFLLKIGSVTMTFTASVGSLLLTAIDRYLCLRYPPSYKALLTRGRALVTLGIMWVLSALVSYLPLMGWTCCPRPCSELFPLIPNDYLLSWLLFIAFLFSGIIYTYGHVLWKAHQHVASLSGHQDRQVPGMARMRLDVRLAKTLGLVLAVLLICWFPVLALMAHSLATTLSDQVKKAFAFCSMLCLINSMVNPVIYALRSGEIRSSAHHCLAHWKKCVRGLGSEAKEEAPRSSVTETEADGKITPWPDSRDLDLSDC

[3] = molecular target: T1, hCB1R; test: Functional activity (agonism), TRUPATH assay of Gαiβ3γ9 protein activation; type: cell-based; details: for Emax: mean ± SEM, n >= 3, NA = no observable agonism at concentrations up to 31.6 μM
[4] = molecular target: T2, hCB2R; test: as above; type: cell-based; details: for Emax: mean ± SEM, n >= 3
[5] = molecular target: T2, hCB2R; test: Stimulation of [35S]GTPγS binding (native G protein activation); type: biochemical

T1 sequence (P21554 whole entry): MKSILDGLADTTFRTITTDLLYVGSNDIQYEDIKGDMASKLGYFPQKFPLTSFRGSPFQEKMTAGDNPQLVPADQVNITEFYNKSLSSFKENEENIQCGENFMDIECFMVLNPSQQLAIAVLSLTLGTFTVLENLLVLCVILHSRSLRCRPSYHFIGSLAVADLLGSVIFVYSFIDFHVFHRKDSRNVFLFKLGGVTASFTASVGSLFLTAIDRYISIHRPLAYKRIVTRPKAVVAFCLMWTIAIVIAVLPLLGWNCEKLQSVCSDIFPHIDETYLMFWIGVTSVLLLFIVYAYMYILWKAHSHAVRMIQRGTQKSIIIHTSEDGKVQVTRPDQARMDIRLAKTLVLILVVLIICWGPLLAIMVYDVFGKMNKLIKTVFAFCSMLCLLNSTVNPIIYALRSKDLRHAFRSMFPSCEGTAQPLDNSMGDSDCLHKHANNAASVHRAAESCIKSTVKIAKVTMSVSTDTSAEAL

Structure (SMILES): CCCCCCC(C)(C)c1cc(O)c2c(c1)OC(C)(C)c1ccc(C)c(CO)c1-2 [axCBN-3]
- Ki ([1]; Ki (nM), hCB1R): 0.661 nM
- affinity, fold higher than CBN ([1]; hCB1R): approximately 360 fold
- affinity (in words) ([1]; hCB1R / CB1 receptor): sub-nanomolar; also recorded: picomolar
- affinity, fold higher than CBN-DMH reported by Rhee, et al. ([1]; hCB1R and hCB2R, comparator value from literature): 5-10 fold
- pKiLo (low affinity site) ([1]; hCB1R, two site binding model, FIG. 5): 7.3
- Ki ([1]; pKiHi (high affinity site), hCB1R, two site binding model, FIG. 5): 0.398 nM
- Ki [2]: 0.933 nM
- affinity, fold higher than CBN ([2]; hCB2R): ~134 fold
- affinity (in words) ([2]; hCB2R / CB2 receptor): sub-nanomolar; also recorded: picomolar
- CB1/CB2 [2]: 0.7
- EC50 [3]: 0.0263 µM
- Emax ([3]; hCB1R): 0.0807 ± 0.0141
- EC50 [4]: 3.47 nM
- Emax ([4]; hCB2R): 0.120 ± 0.0296
- potency to stimulate [35S]GTPγS binding, hCB2R versus hCB1R ([5]; greater at hCB2R than at hCB1R): 2 fold
- efficacy in [35S]GTPγS binding (in words) ([5]; relative to CBN): increased efficacy over CBN

Structure (SMILES): C=C(C)[C@@H]1CCC(C)=C[C@H]1c1c(O)cc(CCCCC)cc1O [CBD, cannabidiol, reference compound]
- agonism / efficacy (in words) ([3]; hCB1R): no efficacy
- agonism / efficacy (in words) ([4]; hCB2R): no efficacy

Structure (SMILES): CCCCCCC(C)(C)c1cc(OC(C)=O)c2c(c1)OC(C)(C)c1ccc(C)c(COC(C)=O)c1-2 [axCBN-4]
- Ki ([1]; Ki (nM), hCB1R): 1200 nM
- Ki [2]: 195 nM
- selectivity for hCB2R over hCB1R [2]: 6.2 fold
- CB1/CB2 [2]: 6.2
- EC50 [3]: 7.08 µM
- Emax ([3]; hCB1R): 0.175 ± 0.0832
- EC50 [4]: 178 nM
- Emax ([4]; hCB2R): 0.120 ± 0.0294
- agonist activity (in words) ([5]; hCB2R): maintained agonist activity

Structure (SMILES): CCCCCc1cc(O)c2c(c1)OC(C)(C)c1ccc(C)cc1-2 [CBN, cannabinol, reference compound]
- Ki ([1]; Ki (nM), hCB1R): 240 nM
- Ki ([1]; pKi, hCB1R, one site, FIG. 5): 631 nM
- Ki [2]: 138 nM
- CB1/CB2 [2]: 1.7
